Experimental data: US5854067A, “Hexokinase inhibitors” (priority 1996, dated 1998)
Where two headings read alike, the source gives them in different places.

Experiments:
[1] = system: Glucokinase (GK, hexokinase IV); details: Table 1, GK, cited from earlier work
[2] = system: Hexokinases I, II, and III (HK I-III, low Km hexokinases); details: Table 1, HK I-III, cited from earlier work
[3] = target: T1, native (wild type) islet glucokinase (Rattus norvegicus, UniProt P17712); test: Radioisotopic glucose phosphorylating activity assay in extracts of transiently transfected 293 cells, with and without G6P; format: biochemical; details: 10 mM unlabeled G6P, 3 and 20 mM glucose, 293 cell extracts
T1 construct: Plasmids containing DNA encoding either intact islet glucokinase; expressed in transfected cells; host or cells: 293 human embryonic kidney cells, transient transfection, crude extract
T1 sequence (P17712 1-465): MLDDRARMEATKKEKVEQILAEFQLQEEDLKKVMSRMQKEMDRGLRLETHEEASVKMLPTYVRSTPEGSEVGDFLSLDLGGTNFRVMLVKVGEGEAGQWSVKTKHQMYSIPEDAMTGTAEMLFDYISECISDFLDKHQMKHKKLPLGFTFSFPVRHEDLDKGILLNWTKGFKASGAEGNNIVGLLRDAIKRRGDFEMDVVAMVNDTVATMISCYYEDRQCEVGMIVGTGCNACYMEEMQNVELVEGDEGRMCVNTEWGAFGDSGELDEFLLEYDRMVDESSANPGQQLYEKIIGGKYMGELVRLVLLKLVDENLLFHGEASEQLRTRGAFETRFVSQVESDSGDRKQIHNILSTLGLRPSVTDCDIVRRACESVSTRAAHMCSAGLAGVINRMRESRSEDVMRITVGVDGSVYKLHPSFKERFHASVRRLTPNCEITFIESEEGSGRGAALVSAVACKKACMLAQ
Procedure: Plasmids containing DNA encoding either intact islet glucokinase, hexokinase I or one of the two hexokinase/glucokinase chimeras were introduced into the human embryonic kidney cell line 293, using Ca2 PO4 co-precipitation. After incubation with the plasmid DNA, cells were cultured for an additional 48 hours.
Assays were performed at 3 and 20 mM glucose. At the lower glucose concentration, hexokinase activity is maximal while glucokinase activity is very low. […] The assay was also performed in the presence and absence of 10 mM unlabeled glucose-6-phosphate (G6P).

In the case of Nc1ncnc2c1ncn2[C@@H]1O[C@H](COP(=O)(O)OP(=O)(O)OP(=O)(O)O)[C@@H](O)[C@H]1O [ATP], the Km ([1]; read-out: Km ATP) is given as 500 µM and the Km ([2]; read-out: Km ATP) is given as 200 to 500 µM.

In the case of O=P(O)(O)OC[C@H]1OC(O)[C@H](O)[C@@H](O)[C@@H]1O (some centres unmarked) [G-6-P, glucose-6-phosphate], the “effect of glucose-6-phosphate on glucose phosphorylating activity” value [3] is reported as “no significant effect”.

For OC[C@H]1OC(O)[C@H](O)[C@@H](O)[C@@H]1O (some centres unmarked) [glucose], the Km ([1]; read-out: Km glucose) is listed as 5000 to 12000 µM and the Km ([2]; read-out: Km glucose) is listed as 20 to 130 µM.
